Test results as given in patent EP0167459B1, “2-Amino oxazolines and process for their preparation” (priority 1984, dated 1986).
Each block holds one compound with its values, some of them ahead of it.

Legend:
[1] = biological target: DA (Homo sapiens, UniProt Q01959); assay: Inhibition of neurotransmitter uptake in vitro, dopamine; format: cell-based; settings: for IC50: read-out: UPTAKE NEUROTRANSMETTEUR IN VITRO IC 50 M DA; for UPTAKE NEUROTRANSMETTEUR IN VITRO IC 50 M DA: DA = Dopamine
[2] = biological target: NAd (Homo sapiens, UniProt P23975); assay: Inhibition of neurotransmitter uptake in vitro, noradrenaline; format: cell-based; settings: NAd = Noradrénaline; for IC50: read-out: UPTAKE NEUROTRANSMETTEUR IN VITRO IC 50 M NAd
[3] = biological target: 5-HT (Homo sapiens, UniProt P31645); assay: Inhibition of neurotransmitter uptake in vitro, 5-HT; format: cell-based; settings: for IC50: 5-HT = (so in the source), read-out: UPTAKE NEUROTRANSMETTEUR IN VITRO IC 50 M 5-HT
[4] = biological target: RECEPTEURS α2; assay: Affinity for the α2 receptor in vitro; format: binding; settings: read-out: AFFINITE RECEPTEURS α2 IN VITRO IC […]; read-out: […] […] α2 IN VITRO IC 50 M
[5] = mouse, doses 0,75 à 20 mg/kg
[6] = Cardiovascular activity in the anaesthetised dog; format: in vivo, chien
Description: Les 2-amino-oxazolines selon l'invention se caractérisent par des propriétés pharmacologiques intéressantes, et notamment par des propriétés anti-dépressives, hypertensives et analeptiques vasculaires. Elles agissent sur les récepteurs α₂, soit par un phénomène de bloquage, soit par un effet agoniste. […] Cet effet s'apparente donc à celui de la Yohimbine.
Chez le chien anesthésié, l'injection des produits selon l'invention provoque une hypertension durable, à des doses relativement faibles, allant de 0,05 à 1 mg/kg I.V.

[7] = test system: récepteurs α₂; settings: lizard; Carter and Shuster, Br. J. Pharmacol. (1982), 75, 169-176; cited from earlier work
[8] = in vivo
[9] = Motor activity (exploration) in the mouse; format: in vivo, souris

Sequence of 5-HT (P31645 whole entry): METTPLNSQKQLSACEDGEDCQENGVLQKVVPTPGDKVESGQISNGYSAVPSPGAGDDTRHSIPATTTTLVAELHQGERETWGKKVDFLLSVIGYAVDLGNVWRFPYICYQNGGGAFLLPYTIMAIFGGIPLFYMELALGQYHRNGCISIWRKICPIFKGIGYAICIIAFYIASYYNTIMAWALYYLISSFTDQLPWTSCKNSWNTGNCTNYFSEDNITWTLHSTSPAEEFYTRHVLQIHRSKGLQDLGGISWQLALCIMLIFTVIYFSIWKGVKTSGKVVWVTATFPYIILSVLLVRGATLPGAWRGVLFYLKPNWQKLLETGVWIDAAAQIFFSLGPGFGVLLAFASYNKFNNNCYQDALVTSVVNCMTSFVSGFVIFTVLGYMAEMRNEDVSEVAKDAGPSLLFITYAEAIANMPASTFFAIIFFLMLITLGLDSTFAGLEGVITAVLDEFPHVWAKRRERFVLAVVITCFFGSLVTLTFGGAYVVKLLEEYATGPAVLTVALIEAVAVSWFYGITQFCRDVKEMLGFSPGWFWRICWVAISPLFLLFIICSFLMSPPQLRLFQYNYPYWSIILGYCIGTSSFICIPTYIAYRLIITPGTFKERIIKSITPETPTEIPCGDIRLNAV
Sequence of DA (Q01959 whole entry): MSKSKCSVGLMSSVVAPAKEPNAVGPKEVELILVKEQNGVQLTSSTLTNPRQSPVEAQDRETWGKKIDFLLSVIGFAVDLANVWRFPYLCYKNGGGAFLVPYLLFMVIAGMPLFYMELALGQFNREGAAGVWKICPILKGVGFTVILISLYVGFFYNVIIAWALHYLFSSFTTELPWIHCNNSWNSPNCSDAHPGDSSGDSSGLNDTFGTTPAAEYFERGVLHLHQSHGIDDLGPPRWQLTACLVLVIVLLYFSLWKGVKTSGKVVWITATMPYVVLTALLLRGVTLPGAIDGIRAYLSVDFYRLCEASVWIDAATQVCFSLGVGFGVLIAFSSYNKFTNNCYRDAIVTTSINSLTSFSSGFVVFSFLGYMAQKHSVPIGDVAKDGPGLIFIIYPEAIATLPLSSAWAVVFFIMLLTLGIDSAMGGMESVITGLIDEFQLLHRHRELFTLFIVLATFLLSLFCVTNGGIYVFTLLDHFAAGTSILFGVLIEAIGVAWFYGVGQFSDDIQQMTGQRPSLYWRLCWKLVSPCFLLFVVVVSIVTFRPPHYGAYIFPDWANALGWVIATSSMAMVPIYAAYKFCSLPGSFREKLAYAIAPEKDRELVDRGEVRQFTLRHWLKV
Sequence of NAd (P23975 whole entry): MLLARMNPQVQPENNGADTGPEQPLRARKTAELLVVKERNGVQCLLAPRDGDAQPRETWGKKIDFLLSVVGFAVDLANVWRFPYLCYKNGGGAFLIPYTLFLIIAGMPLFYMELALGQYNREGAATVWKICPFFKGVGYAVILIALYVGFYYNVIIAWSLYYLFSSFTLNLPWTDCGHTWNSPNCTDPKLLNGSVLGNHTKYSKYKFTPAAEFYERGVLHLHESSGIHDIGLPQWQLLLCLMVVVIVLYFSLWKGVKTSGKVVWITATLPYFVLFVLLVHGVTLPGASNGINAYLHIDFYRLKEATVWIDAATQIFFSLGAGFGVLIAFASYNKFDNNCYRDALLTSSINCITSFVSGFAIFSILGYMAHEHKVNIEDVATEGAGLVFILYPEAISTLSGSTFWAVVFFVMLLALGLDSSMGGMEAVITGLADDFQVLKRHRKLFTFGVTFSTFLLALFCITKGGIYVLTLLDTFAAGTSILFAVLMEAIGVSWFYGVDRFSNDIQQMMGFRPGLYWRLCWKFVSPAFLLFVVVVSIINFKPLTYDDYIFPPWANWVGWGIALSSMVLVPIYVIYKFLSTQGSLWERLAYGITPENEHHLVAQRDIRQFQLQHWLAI

SMILES: NC1=NC(COc2ccccc2)CO1 (racemic) [ex. 6, 4-phénoxy-méthyl 2-amino-oxazoline]
- IC50 [1]: > 10000 nM
- UPTAKE NEUROTRANSMETTEUR IN VITRO IC 50 M NAd [2]: nul à 10^-5
- IC50 [3]: > 10000 nM

SMILES: NC1=NC(Cc2ccc(Cl)cc2)CO1 (racemic) [ex. 10]
- IC50 [1]: 2300 nM
- IC50 [2]: 4000 nM
- IC50 [4]: 44 nM
- IC50 [3]: 4000 nM

SMILES: NC1=NC(Cc2ccccc2Cl)CO1 (racemic) [ex. 11]
- IC50 [1]: > 10000 nM
- IC50 [2]: 2500 nM
- IC50 [4]: 2.7 nM
- IC50 [3]: > 10000 nM

SMILES: NC1=NC(CCc2ccccc2)CO1 (racemic) [ex. 13]
- UPTAKE NEUROTRANSMETTEUR IN VITRO IC 50 M DA [1]: nul à 10^-6
- IC50 [2]: 230 nM
- IC50 [4]: > 100 nM
- UPTAKE NEUROTRANSMETTEUR IN VITRO IC 50 M 5-HT ([3]; 5-HT = 5-hydroxytryptophane (so in the source)): nul à 10^-6

SMILES: NC1=NC(Cc2ccc(O)cc2)CO1 (racemic) [ex. 20]
- IC50 [4]: > 100 nM

SMILES: NC1=NC(Cc2ccccc2)CO1 (single isomer, unassigned) [ex. 12]
- IC50 [1]: 4000 nM
- IC50 [2]: 400 nM
- IC50 [4]: 4 nM
- IC50 [3]: > 10000 nM

SMILES: NC1=NC(Cc2ccccc2Cl)CO1 (single isomer, unassigned) [ex. 23]
- IC50 [4]: 3.3 nM

SMILES: Clc1cccc(Cl)c1N=C1NCCN1 [CLONIDINE]
- température centrale [5]: baisse de température
- IC50 [4]: 1 nM
- activité vasomotrice (vasodilatation ou vasoconstriction primaire) [6]: activité vasoconstrictive d'emblée
- noircissement qui résulte du traitement par le MSH [7]: antagonisé
- activité diabétogène [8]: activité diabétogène expérimentale
- exploration [9]: diminuent l'exploration

- IC50 [4]: 29 nM
SMILES: c1ccc2c(c1)OCC(C1=NCCN1)O2 (centres unmarked) [IDAZOXAN, reference compound]

- IC50 [4]: 22 nM
SMILES: Cc1ccc(N(CC2=NCCN2)c2cccc(O)c2)cc1 [PHENTOLAMINE, reference compound]

SMILES: NC1=NC(COc2ccccc2Cl)CO1 (centres unmarked) [ex. 5, 4-(2-chlorophénoxyméthyl) 2-amino-oxazoline]
- IC50 [1]: 7200 nM
- IC50 [2]: > 10000 nM
- IC50 [4]: 33 nM
- IC50 [3]: 2800 nM

SMILES: COc1ccc(OCC2COC(N)=N2)cc1 (centres unmarked) [ex. 7, 4-(4-méthoxyphenoxymethyl) 2-amino-oxazoline]
- UPTAKE NEUROTRANSMETTEUR IN VITRO IC 50 M DA [1]: nul à 10^-5
- UPTAKE NEUROTRANSMETTEUR IN VITRO IC 50 M NAd [2]: nul à 10^-5
- IC50 [4]: > 100 nM
- IC50 [3]: > 10000 nM

SMILES: NC1=NC(COCc2ccccc2)CO1 (centres unmarked) [ex. 8, 4-(benzyloxy-méthyl) 2-amino-oxazoline]
- UPTAKE NEUROTRANSMETTEUR IN VITRO IC 50 M DA [1]: nul à 10^-5
- UPTAKE NEUROTRANSMETTEUR IN VITRO IC 50 M NAd [2]: nul à 10^-5
- IC50 [4]: > 100 nM
- IC50 [3]: > 10000 nM
